Measured values as given in paper PMC11951083, “Highly Specific Miniaturized Fluorescent Monoacylglycerol Lipase Probes Enable Translational Research” (Journal of the American Chemical Society, 2025).
≈ marks a conversion by molar mass, not a printed value. Read-outs that look alike come from different tables or passages of the source.

Legend:
MAGL [1] = target: T1, MAGL (Homo sapiens, UniProt Q99685); assay: Native MS (RapidFire) 2-AG substrate assay, purified human MAGL; format: biochemical; conditions: purified human MAGL, native MS substrate assay; IC50 of covalent inhibitors time-dependent; read-out: IC50 hMAGL
T1 sequence (Q99685 1-303): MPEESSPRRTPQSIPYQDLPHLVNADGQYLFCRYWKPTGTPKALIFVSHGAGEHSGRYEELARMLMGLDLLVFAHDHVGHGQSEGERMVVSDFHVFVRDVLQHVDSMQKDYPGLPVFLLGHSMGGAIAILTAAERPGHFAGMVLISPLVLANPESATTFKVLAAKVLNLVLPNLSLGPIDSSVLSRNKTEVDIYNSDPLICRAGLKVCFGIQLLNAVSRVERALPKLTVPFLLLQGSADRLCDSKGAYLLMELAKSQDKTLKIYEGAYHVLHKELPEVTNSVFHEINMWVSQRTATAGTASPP
Method: (§1) In vitro MAGL Inhibition Assay
(§2) Compounds were profiled for MAGL inhibitory activity by determining the enzymatic activity by following the hydrolysis of the natural substrate 2-arachidonoylglycerol (2-AG), resulting in arachidonic acid, which can be followed by mass spectrometry. The 2-AG assay was carried out in 384 well assay plates (PP, Greiner Cat# 784201) in a total volume of 20 µL. Compound dilutions were made in 100% DMSO (VWR Chemicals 23500.297) in a polypropylene plate in 3-fold dilution steps to give a final concentration range in the assay from 12.5 µM to 0.8 pM. 0.25µL compound dilutions (100% DMSO) were added to 9 µL MAGL in assay buffer (50 mM TRIS (GIBCO, 15567-027), 1 mM EDTA (Fluka, 03690-100 mL), 0.01% (v/v) Tween. After shaking, the plate was incubated for 15 min at RT. To start the reaction, 10 µL 2-arachidonoylglycerol in assay buffer was added. The final concentrations in the assay were 50 pM MAGL and 8 µM 2-arachidonoylglyerol. After shaking and 30 min incubation at RT, the reaction was quenched by the addition of 40µL of ACN containing 4µM of d8-arachidonic acid. The amount of arachidonic acid was traced by an online SPE system (Agilent Rapidfire) coupled to a triple quadrupole mass spectrometer (Agilent 6460). A C18 SPE cartridge (G9205A) was used in an ACN/water liquid setup. The mass spectrometer was operated in negative electrospray mode following the mass transitions 303.1 → 259.1 for arachidonic acid and 311.1 → 267.0 for d8-arachidonic acid. The activity of the compounds was calculated based on the ratio of intensities [arachidonic acid / d8-arachidonic acid]. The lowest IC50 value that can be determined with high accuracy is approximately 0.025 nM.

mMAGL = target: T2, mMAGL (Mus musculus, UniProt O35678); assay: Native MS (RapidFire) 2-AG substrate assay, purified mouse MAGL; format: biochemical; conditions: purified mouse MAGL, native MS substrate assay; read-out: IC50 mMAGL
T2 sequence (O35678 1-303): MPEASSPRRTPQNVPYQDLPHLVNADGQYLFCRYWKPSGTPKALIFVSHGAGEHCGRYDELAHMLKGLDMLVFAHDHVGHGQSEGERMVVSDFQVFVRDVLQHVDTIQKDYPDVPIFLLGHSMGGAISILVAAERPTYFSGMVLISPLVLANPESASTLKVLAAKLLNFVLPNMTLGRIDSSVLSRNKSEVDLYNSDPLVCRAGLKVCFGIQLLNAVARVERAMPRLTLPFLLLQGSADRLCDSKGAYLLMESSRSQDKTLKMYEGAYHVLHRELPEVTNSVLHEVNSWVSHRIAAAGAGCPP
Method: as §1, §2

rMAGL = target: T3, rMAGL (Rattus norvegicus, UniProt Q8R431); assay: Native MS (RapidFire) 2-AG substrate assay, purified rat MAGL; format: biochemical; conditions: for loss of potency against rat or cynomolgus monkey orthologs: rat or cynomolgus monkey MAGL
T3 sequence (Q8R431 1-303): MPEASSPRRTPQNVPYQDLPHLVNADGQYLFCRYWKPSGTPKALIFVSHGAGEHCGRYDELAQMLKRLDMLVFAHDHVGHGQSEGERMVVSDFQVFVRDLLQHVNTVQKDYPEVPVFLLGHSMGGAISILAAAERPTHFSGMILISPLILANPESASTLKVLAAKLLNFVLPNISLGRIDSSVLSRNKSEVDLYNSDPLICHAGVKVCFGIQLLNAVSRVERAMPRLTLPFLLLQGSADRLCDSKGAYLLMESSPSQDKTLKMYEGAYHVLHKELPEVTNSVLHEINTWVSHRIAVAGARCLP
Method: as §1, §2

cMAGL = target: T4, cMAGL (Macaca fascicularis, UniProt A0A2K5V664); assay: Native MS (RapidFire) 2-AG substrate assay, purified cynomolgus monkey MAGL; format: biochemical; conditions: purified cynomolgus monkey MAGL, native MS substrate assay; read-out: IC50 cMAGL
T4 sequence (A0A2K5V664 11-297): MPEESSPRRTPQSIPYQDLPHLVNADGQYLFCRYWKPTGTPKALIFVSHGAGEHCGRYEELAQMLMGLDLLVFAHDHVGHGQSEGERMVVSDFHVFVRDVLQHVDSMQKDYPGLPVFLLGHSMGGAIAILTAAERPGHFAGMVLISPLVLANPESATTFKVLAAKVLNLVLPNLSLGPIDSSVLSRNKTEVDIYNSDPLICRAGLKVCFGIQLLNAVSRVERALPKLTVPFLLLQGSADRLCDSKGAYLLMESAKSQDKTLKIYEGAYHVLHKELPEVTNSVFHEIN
Method: as §1, §2

[2] = High throughput kinetic solubility measurement; format: physicochemical; conditions: phosphate buffer, pH 6.5, aqueous buffer, kinetic from dmso stock
[3] = test system: serine hydrolases in the mouse brain proteome (MBP); assay: Multiplex ABPP in mouse brain proteome; format: biochemical
Method: K = [L][P] = 0.5 [L]T (FP50 − 0.5 [L]T) = FP − 0.5 [L] […]
Mouse brain sample preparation
Mouse tissues were isolated according to guidelines approved by the ethical committee of Leiden University. Male mouse brain (27 weeks old) was homogenized with glass beads (2x 1 min, bullet blender, speed 8) using cold lysis buffer (20 mM Hepes pH 7.2, 1 mM MgCl 2, 2 U/mL Benzonase). The membrane and cytosol were separated by centrifugation. The membrane fraction was resuspended in Hepes/DTT buffer. Protein concentration was determined with Bradford Assay, and samples were diluted to a final concentration of 2.0 mg/mL. Samples were snap -frozen in liquid nitrogen and stored at -80 °C until further use.
Lysate (19 µL, 2 µg/µL) was thawed on ice. For comparative ABPP (irreversible probes), 1 µL of probe (20x stock in DMSO) or pure DMSO was added to the sample, vortexed briefly, and in cubated for 30 minutes at RT. For competitive ABPP (reversible probes), 0.5 µL of the reversible probe (40x stock in DMSO) or pure DMSO (as vehicle) was added to the sample, vortexed briefly, and incubated for 30 […]
minutes at RT. Subsequently, 0.5 µL MB064 (40x stock in DMSO) was added to the proteome sample, vortexed briefly, and incubated for 10 minutes at RT, after which 0.5 µL FP-Bodipy-FL (40x stock in DMSO) was added, vortexed briefly and incubated for 10 minutes at RT. The final volume was 20 - 20.5 µL (5 - 7.5% DMSO). The reaction was quenched by the addition of 7.5 µL of 4*Laemmli-buffer (final concentrations: 60 mM Tris (pH 6.8), 2% (w/v) SDS, 10% (v/v) glycerol, 1.25% (v/v) β-mercaptoethanol, 0.01% (v/v) bromophenol blue). 10 µL (14 µg protein) of the quenched reaction mixture was resolved on 10% acrylamide SDS-PAGE (180 V, 75 min). Fluorescence was measured using a Biorad ChemiDoc MP system (fluorescence channels Cy2, Cy3, Cy5). Gels were then stained using coomassie staining and imaged for protein loading control. Labeling of the respective proteins via MB064 and FP-BODIPY was visualized in two separate channels. […]
Activity based protein profiling (ABPP)
PBMCs were thawed, washed with 1 x PBS and equal amounts of cells were exposed to DMSO (D2650; Sigma-Aldrich) or MAGL inhibitor PF (PF-06795071) in DMSO for 30 min at room temperature with concentrations ranging from 1 nM to 1000 nM. Cells were washed with 1 x PBS and lysed in ice -cold lysis buffer (ab156035; Abcam), lysates were centrifuged at 14,000 x g for 15 minutes at 4°C and supernatants were collected. For ABPP experiments, cell lysates containing equal amounts of protein were incubated with the appropriate concentration of activity -based probe for 30 min at room temperature. The reaction was quenched for 30 min by adding SDS -PAGE loading buffer (NP0007, Thermo). Samples were then separated by SDS-PAGE and bands were detected ChemiDoc Imager (Bio-Rad Laboratories). Following detection, gels were stained with SimplyBlue™ SafeStain (LC6060, Thermo) for 1 hour with gentle agitation and excess stain was removed by destaining in ddH2O for 1 h with gentle agitation. Gels were imaged and protein bands were quantified using Image Lab software (Bio-Rad Laboratories).

[4] = target: T5, NanoLuc luciferase MAGL fusion protein (Homo sapiens, UniProt Q99685); assay: Cellular MAGL NanoBRET target engagement assay in live HEK293 cells; format: cell-based; conditions: live HEK293 cells; read-out: IC50 nanoBRET
T5 sequence (Q99685 1-303): T1 sequence (Q99685 1-303)
Method: This assay was performed as first described before.20
Compounds were profiled by a novel cellular MAGL NanoBRET™ Target Engagement assay, which measures the apparent affinity of test compounds by competitive displacement of a Roche -developed Tracer (WO2021058443, Example 2 121, or probe 4a, respectively), reversibly bound to a NanoLuc ® luciferase MAGL fusion protein in cells.
A HEK293A stable cell line expressing NanoLuc_MAGL was established at Roche and assigned as HEK293A_NanoLuc_MAGL clone #43. A fixed concentration of tracer is added to cells expressing the NanoLuc®_MAGL fusion protein to generate a BRET reporter complex. The introduction of competing compounds results in a dose -dependent decrease in NanoBRET™ energy transfer, which allows quantification of the intracellular affinity of the target protein for the test compound.
HEK293A_NanoLuc_MAGL clone #43 cells were cultured in DMEM (Gibco 31966) with 10% FBS and 800 ug/ml G418. The NanoBRET assay was performed by seeding 5000 cells/well in Costar low - volume white 384-well plate in assay buffer (1% FBS in HBSS), followed by adding the tracer (50 nM Example 21 or 100 nM 4a final concentration) and serial dilutions of test compounds. After 2 hours of incubation, Nanoluciferase substrates and extracellular inhibitors were added following the manufacturer's protocol (Promega, #N2520), and the NanoBRET signaling were quantified with the Paradigm (Molecular Devices).

rat MAGL = conditions: cited from earlier work
MAGL [5] = target: T1, MAGL; set-up: method as in earlier work; conditions: Table S2, literature compounds; ref (1), (6)-(12) as indicated per compound; cited from earlier work
[6] = purified rat MAGL, native MS substrate assay, read-out: IC50 rMAGL

Structure (SMILES) | IC50 (MAGL [1]) | IC50 (mMAGL) | IC50 (rMAGL; [6]) | IC50 (cMAGL) | solubility kinetic [2] | labeling selectivity in ABPP (covalent probes) ([3]; mouse brain homogenates, broad range of concentrations) | IC50 (rMAGL; SI Table 1, read-out: IC50 against purified MAGL ± SEM, Rat) | loss of potency against rat or cynomolgus monkey orthologs (rMAGL) | IC50 [4] | selectivity in competitive ABPP (reversible probes) ([3]; mouse brain proteome, membrane and cytosolic fraction, 1 μM) | potency on rat MAGL (rat MAGL) | IC50 (MAGL [5])
O=C(O[C@H](CO)C(F)(F)F)N1CC2(CC(CC3=C4C=CC(c5ccc[nH]5)=[N+]4[B-](F)(F)n4cccc43)C2)C1 [Compound 1a] | 0.47 nM | 0.31 nM | 0.44 nM | 0.4 nM | < 1 µg/mL | only selective irreversible labeling of the two MAGL isoforms |  |  |  |  |  | 
O=C1NC2(CO1)CN(C(=O)N1CC3(CCC(CC4=C5C=CC=[N+]5[B-](F)(F)n5cccc54)CC3)C1)C2 [Compound 3] | 0.83 nM | 0.96 nM |  | 3.86 nM | 139 µg/mL (≈ 288 µM) |  | 3.54 ± 0.37 nM | less than 4 fold | 557 nM |  |  | 
O=C(N1CC2(CC(CC3=C4C=CC(c5ccc[nH]5)=[N+]4[B-](F)(F)n4cccc43)C2)C1)N1CC2(CC(n3cnc(C4CC4)n3)C2)C1 [Compound 5a] | 0.73 nM | 0.9 nM | 2.23 nM | 0.77 nM | < 0.1 µg/mL |  |  | less than 4 fold |  | no other potential off-target detectable |  | 
O=C(Oc1ccc([N+](=O)[O-])cc1)N1CCC(C(O)(c2ccc3c(c2)OCO3)c2ccc3c(c2)OCO3)CC1 [JZL-184] |  |  |  |  |  |  |  |  |  |  | severely reduced potency | 
CN1/C(=C/C=C/C=C/C2=[N+](CCCCCC(=O)NCc3cn(CCOc4ccc(C(c5ccc(Cl)cc5)N5CCN(C(=O)OC(C(F)(F)F)C(F)(F)F)CC5)cc4)nn3)c3ccccc3C2(C)C)C(C)(C)c2ccccc21 (stereo not shown) [LEI-463] |  |  |  |  |  |  |  |  |  |  |  | ~10 nM
